From US11096924B2, “Combination therapies using immuno-dash inhibitors and PGE2 antagonists” (Trustees of Tufts College, priority 2016, dated 2021) come the findings set out here.

In data set [1] the target is recombinant human dipeptidyl peptidase II (DPPII) (Homo sapiens (Human), UniProt Q9UHL4). The experiment in a line: In vitro inhibition assay, dipeptidyl peptidase II. It counts as biochemical.
Data set [2] relates to macrophages. Briefly: Pyroptosis of macrophages in cell culture. Particulars: Macrophage; Example 2 table; unit inferred. It counts as cell-based.
Data set [3] has as its system G-CSF.
Data set [4] concerns the target recombinant human dipeptidyl peptidase IV (DPPIV) (Homo sapiens (Human), UniProt P27487). The experiment in a line: In vitro inhibition assay, dipeptidyl peptidase IV. It is filed as biochemical.
The target of data set [5] is recombinant human fibroblast activation protein (FAP) (Homo sapiens (Human), UniProt Q12884). Briefly: In vitro inhibition assay, fibroblast activation protein. It counts as biochemical.
Data set [6] has as its target DPP7 (Homo sapiens (Human), UniProt Q9UHL4). The experiment in a line: EnPlex assay DPP7. It counts as biochemical.
In data set [7] the test system is MB49 murine urothelial carcinoma cell line. Briefly: MB49 efficacy studies in tumor bearing mice. It is filed as in vivo. The note with it: celecoxib alone, various concentrations, versus vehicle.
For data set [8], the target named is DPP4 (Homo sapiens (Human), UniProt P27487). The experiment in a line: EnPlex assay DPP4. It is filed as biochemical.
Data set [9] is described as follows: Oral PK profile in mice, plasma drug concentrations. It counts as in vivo, BALB/c mice. Particulars: 3 mg/kg oral gavage, individual mice #1-#3. On the procedure: Example 8. […] Drugs dissolved in pH 2 water at 0.3 mg/mL. […] 2. Plasma prepared by centrifugation. 3. Drug concentrations measured by LCMS.
The target in data set [10] is recombinant human dipeptidyl peptidase 8 (DPP8) (Homo sapiens (Human), UniProt Q6V1X1). Briefly: In vitro inhibition assay, dipeptidyl peptidase 8. It is filed as biochemical.
Setting [11] is: male, BALB/c, mouse, plasma, oral, 3 mg/kg, 5 min post-dose.
Setting [12] is: male, BALB/c, mouse, plasma, oral, 3 mg/kg, 20 min post-dose.
[13] abbreviates: male, BALB/c, mouse, plasma, oral, 3 mg/kg, 30 min post-dose.
Setting [14] is: male, BALB/c, mouse, plasma, oral, 3 mg/kg, 40 min post-dose.
Where [15] appears, read: male, BALB/c, mouse, plasma, oral, 3 mg/kg, 120 min post-dose.
Where [16] appears, read: male, BALB/c, mouse, plasma, oral, 3 mg/kg, 240 min post-dose.

pIC50: −log10 of the molar value. Where “and” joins values, the source holds several entries; their conditions need not be identical. Equal entries are not always repeated. Where two headings read alike, the source gives them in different places.

Sequence of recombinant human dipeptidyl peptidase IV (DPPIV) (P27487 whole entry): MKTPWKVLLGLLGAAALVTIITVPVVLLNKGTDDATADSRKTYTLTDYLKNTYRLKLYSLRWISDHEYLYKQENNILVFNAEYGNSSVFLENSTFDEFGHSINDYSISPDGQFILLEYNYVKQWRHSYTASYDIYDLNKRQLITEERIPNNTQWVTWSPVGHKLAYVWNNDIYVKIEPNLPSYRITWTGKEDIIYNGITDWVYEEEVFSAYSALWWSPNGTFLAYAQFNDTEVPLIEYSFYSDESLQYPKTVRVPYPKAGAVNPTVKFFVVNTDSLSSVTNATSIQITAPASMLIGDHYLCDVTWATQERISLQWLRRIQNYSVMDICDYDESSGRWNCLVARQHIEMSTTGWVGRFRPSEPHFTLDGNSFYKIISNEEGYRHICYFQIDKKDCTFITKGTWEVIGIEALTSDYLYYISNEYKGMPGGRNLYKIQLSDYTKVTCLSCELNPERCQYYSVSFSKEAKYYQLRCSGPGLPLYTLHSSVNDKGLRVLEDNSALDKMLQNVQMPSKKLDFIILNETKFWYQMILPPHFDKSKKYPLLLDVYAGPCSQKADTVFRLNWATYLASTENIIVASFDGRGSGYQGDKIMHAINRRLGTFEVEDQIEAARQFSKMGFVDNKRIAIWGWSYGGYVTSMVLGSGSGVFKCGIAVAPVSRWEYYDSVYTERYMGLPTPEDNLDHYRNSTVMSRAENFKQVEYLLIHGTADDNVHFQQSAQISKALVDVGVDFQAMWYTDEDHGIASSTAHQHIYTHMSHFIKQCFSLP
Sequence of DPP4 (P27487 whole entry): as above
Sequence of recombinant human fibroblast activation protein (FAP) (Q12884 whole entry): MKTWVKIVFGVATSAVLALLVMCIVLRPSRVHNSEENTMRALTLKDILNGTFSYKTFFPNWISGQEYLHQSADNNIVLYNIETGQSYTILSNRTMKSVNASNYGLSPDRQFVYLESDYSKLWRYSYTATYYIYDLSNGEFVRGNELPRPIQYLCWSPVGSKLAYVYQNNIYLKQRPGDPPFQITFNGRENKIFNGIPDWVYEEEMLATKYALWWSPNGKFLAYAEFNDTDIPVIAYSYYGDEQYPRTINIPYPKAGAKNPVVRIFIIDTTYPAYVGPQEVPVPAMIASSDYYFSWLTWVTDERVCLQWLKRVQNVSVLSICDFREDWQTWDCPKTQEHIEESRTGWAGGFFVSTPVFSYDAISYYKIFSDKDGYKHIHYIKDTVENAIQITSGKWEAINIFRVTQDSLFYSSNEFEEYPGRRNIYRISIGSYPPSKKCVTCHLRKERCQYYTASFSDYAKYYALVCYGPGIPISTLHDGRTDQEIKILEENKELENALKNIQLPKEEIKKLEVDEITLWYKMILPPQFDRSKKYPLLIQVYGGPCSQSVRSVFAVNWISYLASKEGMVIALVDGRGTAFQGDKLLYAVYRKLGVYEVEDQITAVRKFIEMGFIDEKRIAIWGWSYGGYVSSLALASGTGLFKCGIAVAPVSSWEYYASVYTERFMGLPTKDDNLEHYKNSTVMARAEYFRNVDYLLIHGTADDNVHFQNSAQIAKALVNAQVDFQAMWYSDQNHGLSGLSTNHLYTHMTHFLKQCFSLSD
Sequence of recombinant human dipeptidyl peptidase 8 (DPP8) (Q6V1X1 whole entry): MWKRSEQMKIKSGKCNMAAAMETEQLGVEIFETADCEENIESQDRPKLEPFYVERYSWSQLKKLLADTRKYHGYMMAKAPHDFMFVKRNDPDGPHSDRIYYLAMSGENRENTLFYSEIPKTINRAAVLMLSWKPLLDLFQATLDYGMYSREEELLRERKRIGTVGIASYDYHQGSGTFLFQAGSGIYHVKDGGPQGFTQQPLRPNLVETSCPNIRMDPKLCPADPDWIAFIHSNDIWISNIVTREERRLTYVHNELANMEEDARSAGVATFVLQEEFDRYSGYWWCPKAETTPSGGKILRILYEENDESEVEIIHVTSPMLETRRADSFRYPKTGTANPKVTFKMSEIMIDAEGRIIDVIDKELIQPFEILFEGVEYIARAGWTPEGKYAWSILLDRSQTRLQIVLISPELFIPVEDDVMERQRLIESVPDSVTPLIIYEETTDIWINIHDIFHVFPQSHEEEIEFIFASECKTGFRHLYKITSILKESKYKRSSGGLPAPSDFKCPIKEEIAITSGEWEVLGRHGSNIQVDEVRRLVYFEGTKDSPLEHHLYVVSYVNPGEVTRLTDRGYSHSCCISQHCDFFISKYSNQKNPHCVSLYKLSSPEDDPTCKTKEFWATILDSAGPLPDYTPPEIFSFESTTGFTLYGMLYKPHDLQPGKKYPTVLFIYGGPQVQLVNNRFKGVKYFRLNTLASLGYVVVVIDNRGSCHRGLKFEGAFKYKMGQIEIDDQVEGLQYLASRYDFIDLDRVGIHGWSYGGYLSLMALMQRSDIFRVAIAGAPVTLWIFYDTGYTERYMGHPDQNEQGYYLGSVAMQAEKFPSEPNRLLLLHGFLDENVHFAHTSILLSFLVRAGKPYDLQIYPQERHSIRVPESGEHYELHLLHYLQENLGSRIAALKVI

By pIC50 is commonly meant the negative decadic logarithm of the IC50, by convention in mol/L. As to `CC1(C)CCN[C@@H]1C(=O)N1CCC[C@H]1B(O)O` (relative stereo) [compound 5363], in [1] (DPP2), the pIC50 is 6.96.

Regarding `CC[C@@H](C)[C@H](N)C(=O)N1CCC[C@H]1B(O)O` [compound 4317], in data set [2], the pIC50 is 7.89.

The molecule `C[C@H](N)C(=S)N1CCC[C@H]1B(O)O` [ARI-2243] showed a pIC50 in data set [2] of 4.96. For the same molecule, the “Average [G-CSF] at 6 hrs” value in data set [3] (20 μg/animal PO) is 330 pg/mL; in [3] (50 μg/animal IP), 2100 pg/mL; in data set [3] (100 μg/animal IP), 2400 pg/mL; in data set [3] (300 μg/animal IP), 4400 pg/mL.

With `N[C@H](C(=O)N1CCC[C@H]1B(O)O)C1CCCCC1` [compound 1797, Crg-boroPro], the pIC50 in data set [2] is 7.64. Further, the “Average [G-CSF] at 6 hrs” value in data set [3] (20 μg/animal PO) was 20000 pg/mL.

`CN(CB(O)O)C(=O)[C@@H](N)CCC(=O)O` [compound 2408] showed a pIC50 in data set [2] of less than 5.00.

Consider `CC1([C@H](N)C(=O)N2CCC[C@H]2B(O)O)CC1` (relative stereo) [compound 4367], for which the pIC50 was 8.85 in [4], 7.47 in data set [1] (DPP2) and 6.46 in [5].

Turning to `N[C@H](C(=O)N1CCC[C@H]1B(O)O)C12CC3CC(CC(O)(C3)C1)C2` (relative stereo) [ARI-3102A], the pIC50 was 7.09 in [1] (DPP2) and less than 7.00 in data set [6].

As for `Cc1ccc(-c2cc(C(F)(F)F)nn2-c2ccc(S(N)(=O)=O)cc2)cc1` [celecoxib], the tumor growth rates result in data set [7] is “no observed differences in tumor growth rates compared to control”.

With `CC(C)[C@H](N)C(=S)N1CCC[C@H]1B(O)O` [compound 2401], in data set [2], the pIC50 was less than 4.70.

Regarding `CC1(C)CN[C@@H]1C(=O)N1CCC[C@H]1B(O)O` (relative stereo) [compound 5362], the pIC50 is 9.30 in data set [4] and 7.17 in data set [1] (DPP2).

For the molecule `N[C@@H](CC(=O)N1CCn2c(nnc2C(F)(F)F)C1)Cc1cc(F)c(F)cc1F` [Sitagiptin, reference compound], the results for the “Average [G-CSF] at 6 hrs” value in data set [3] (100 μg/animal SC), in data set [3] (1000 μg/animal PO) and in data set [3] (2000 μg/animal SC) were 100 pg/mL, 340 pg/mL and 950 pg/mL, respectively.

Regarding `CC1([C@H](N)C(=O)N2CCC[C@H]2B(O)O)CCCC1` (relative stereo) [4175CP], the pIC50 in [4] is 8.54; in [1] (DPP2) it was 8.04.

In data set [2], `C[C@H](N)C(=O)N1CCC[C@H]1B(O)O` [compound 1129] had a pIC50 of less than 5.00.

`CC(C)(C)[C@H](N)C(=O)N1CCC[C@H]1B(O)O` [ARI-4175]: the entries for the “Average [G-CSF] at 6 hrs” value in [3] (20 μg/animal PO) and in data set [3] (20 μg/animal SC) were 19000 pg/mL and 65000 pg/mL, respectively.

Consider `CC(C)(F)[C@H](N)C(=O)N1CCC[C@H]1B(O)O` (relative stereo) [ARI-4268], for which the pIC50 in data set [4] is 7.92; in data set [1] (DPP2), 7.17.

Take `NC(N)=NCCC[C@H](N)C(=O)N1CCC[C@H]1B(O)O` [Arg-boroPro]: the “Average [G-CSF] at 6 hrs” value in data set [3] (20 μg/animal PO) stood at 320 pg/mL; in [3] (20 μg/animal SC), 160 pg/mL; in [3] (200 μg/animal PO) it was 930 pg/mL; in [3] (200 μg/animal SC) it was 670 pg/mL; in data set [3] (2000 μg/animal PO), 3500 pg/mL; in data set [3] (2000 μg/animal SC), 31000 pg/mL.

For `N[C@@H](CCC(=O)O)C(=O)N1CCC[C@H]1B(O)O` [compound 8120, Glu-boroPro], the “Average [G-CSF] at 6 hrs” value in [3] (20 μg/animal PO) was 340 pg/mL; in data set [3] (200 μg/animal PO), 160 pg/mL; in data set [3] (200 μg/animal SC) it was 210 pg/mL; in data set [3] (2000 μg/animal PO), 2300 pg/mL; in data set [3] (2000 μg/animal SC) it was 16000 pg/mL.

`CC1([C@H](N)C(=O)N2CCC[C@H]2B(O)O)CCCCC1` (relative stereo) [ARI-4175CH]: the pIC50 was 8.55 in data set [4], 7.27 in data set [1] (DPP2), 11.30 in [8] and less than 7.00 in data set [6]. In addition, the “concentration in Plasma” value in data set [9] (5 min post-dose) is 230 nM and 420 nM; in data set [9] (10 min post-dose) it was 250 nM and 90 nM; in [9] (20 min post-dose), 230 nM and 270 nM; in data set [9] (30 min post-dose), 130 nM; in data set [9] (40 min post-dose) it was 250 nM and 190 nM; in data set [9] (60 min post-dose), 0 nM and 90 nM. The “concentration in Plasma” value in data set [9] (120 min post-dose) is 70 nM and 90 nM; in data set [9] (240 min post-dose) it was 10 nM. The molecule also displayed a concentration at 5 min in [9] (setting [11]) of 280 nM. In addition, the concentration at 20 min in [9] (setting [12]) came out at 230 nM. The concentration at 30 min in data set [9] (setting [13]) worked out at 240 nM. The molecule further showed a concentration at 40 min in data set [9] (setting [14]) of 170 nM. Also, the concentration at 120 min in data set [9] (setting [15]) was 70 nM. Further, the concentration at 240 min in data set [9] (setting [16]) came to 10 nM. Moreover, the “Average [G-CSF] at 6 hrs” value amounted to 1100 pg/mL in [3] (5 μg/animal PO), 51000 pg/mL in data set [3] (20 μg/animal PO) and 60000 pg/mL in data set [3] (20 μg/animal SC).

On to `N[C@H](C(=O)N1CCC[C@H]1B(O)O)C12CC3CC(CC(C3)C1)C2` (relative stereo) [ARI-5544, Gly(1-adamantyl)-boroPro], for which the pIC50 in [1] (DPP2) is 7.57; in data set [1] (compound incubated at room temperature overnight at pH 2.0 or pH 7.4 prior to the assays, read-out: DPPII IC50), 7.68. In addition, the “concentration in Plasma” value in [9] (5 min post-dose) was 110 nM and 220 nM; in [9] (20 min post-dose), 170 nM and 180 nM; in [9] (30 min post-dose), 220 nM and 170 nM; in data set [9] (40 min post-dose) it was 130 nM and 140 nM; in data set [9] (60 min post-dose), 110 nM and 90 nM; in data set [9] (120 min post-dose), 30 nM and 50 nM. Further, the “concentration in Plasma” value in data set [9] (240 min post-dose) is 10 nM and 20 nM. Further, the concentration at 5 min in [9] (setting [11]) worked out at 160 nM. In data set [9] (male, BALB/c, mouse, plasma, oral, 3 mg/kg, 10 min post-dose), this molecule came in with a concentration at 10 min of 270 nM. This molecule also came in with a concentration at 20 min in [9] (setting [12]) of 140 nM. In addition, the concentration at 30 min in data set [9] (setting [13]) was 110 nM. Also, the concentration at 40 min in data set [9] (setting [14]) came out at 120 nM. The molecule further yielded a concentration at 60 min in [9] (male, BALB/c, mouse, plasma, oral, 3 mg/kg, 60 min post-dose) of 80 nM. The concentration at 120 min in data set [9] (setting [15]) was determined as 30 nM. Besides, the concentration at 240 min in data set [9] (setting [16]) worked out at 20 nM. The “Average [G-CSF] at 6 hrs” value was 650 pg/mL in data set [3] (5 μg/animal PO), 30000 pg/mL in data set [3] (20 μg/animal PO) and 73000 pg/mL in data set [3] (20 μg/animal SC).

In the case of `N[C@H](C(=O)N1CCC[C@H]1B(O)O)C1(C(F)(F)F)CC1` [compound 4949], the pIC50 in data set [1] (DPP2) is 7.41.

In the case of `N[C@H](C(=O)N1CCC[C@H]1B(O)O)C12CC3CC(CC(F)(C3)C1)C2` [ARI-5870], the pIC50 in [1] (DPP2) was 7.24.

Turning to `CC[C@H](C)[C@H](N)C(=O)N1CCC[C@H]1B(O)O` [compound 4316, theoric-boroPro], in data set [2], the pIC50 is 7.68. For the same molecule, in data set [3] (20 μg/animal PO), the “Average [G-CSF] at 6 hrs” value was found to be 5000 pg/mL.

As to `N[C@H](C(=O)N1CCC[C@H]1B(O)O)C12CC3CC(CC(Cl)(C3)C1)C2` (relative stereo) [ARI-3102C], the pIC50 in data set [4] was 8.22; in data set [8] it was 11.22.

In the case of `CC1(C)CCCN[C@@H]1C(=O)N1CCC[C@H]1B(O)O` (relative stereo) [compound 5349], the negative-log IC50 (pIC50) in data set [10] is 6.60; in [4], 7.04; in data set [1] (DPP2), 6.21; in [5], 4.85.
